Results on two compounds are retold here after US11691972B2, “Compounds for targeted degradation of BRD9” (C4 Therapeutics, Inc., priority 2020, dated 2023).

A value given as a limit tells only on which side of the number the result lay.

The test system of data set [1] is Yamato-SS xenograft model. The data set can be described thus: Tumor volume in the Yamato-SS xenograft (CDX) model. The format is in vivo, mouse.
The next data set has as its system SW982. The data set can be described thus: SW982 viability (GI50). As to conditions: Homo sapiens; SW982 cells. In kind it is cell-based.
The next data set in a line: Plasma stability, rat. In kind it is in vitro ADME.
Another data set is described as follows: Plasma stability, human. The format is in vitro ADME.
A further data set can be described thus: PPB, dog. In kind it is in vitro ADME. As to conditions: plasma.
A short description of the next data set: PPB, human. To be noted: plasma. In kind it is in vitro ADME.
Data set [2] can be described thus: Hepatocyte stability, mouse. In kind it is in vitro ADME. To be noted: mouse hepatocytes; read-out: Hepatocyte stability, Clint scaled ws.
A short description of data set [3]: Hepatocyte stability, rat. In kind it is in vitro ADME. As to conditions: rat hepatocytes; read-out: Hepatocyte stability, Clint scaled ws.
Data set [4] can be described thus: Hepatocyte stability, human. In kind it is in vitro ADME. To be noted: human hepatocytes; read-out: Hepatocyte stability, Clint scaled ws.
Another data set has as its target hERG (Homo sapiens, UniProt Q12809). The data set can be described thus: hERG.
Another data set in a line: IV PK, mouse. As to conditions: for IV PK AUC(0-last) / IV PK Cmax: dose-normalised; for clearance / Vd / half-life: in vivo; for clearance: read-out: IV PK CL; for Vd: read-out: IV PK Vdss; for half-life: read-out: IV PK t1/2 (converted). In kind it is in vivo.
The nature of another data set: PO PK, rat. The format is in vivo. To be noted: for PO PK AUC(0-last) / PO PK Cmax: dose-normalised; for bioavailability / half-life: in vivo; for bioavailability: read-out: PO PK F%; for half-life: read-out: PO PK t1/2 (converted).
A further data set deals with Yamato-SS. Briefly: Synovial sarcoma xenograft model Yamato-SS, tumor volume. The format is in vivo. To be noted: BALB/c nude mice. As to the method:
Yamato-SS cells were maintained in vitro until exponential growth phase and inoculated subcutaneously into BALB/c nude mice at the right flank for tumor development. Treatments of Compound 172 were started at the appropriate tumor volume. Mice were treated with 40 mg/kg PO QD of Compound 172 and tumor volumes (x-axis) were measured twice a week using a caliper. The x-axis is time after start of treatment measured in days and the y-axis is tumor volume measured in mm^3.
Yamato-SS cells were maintained in vitro until exponential growth phase and inoculated subcutaneously into BALB/c nude mice at the right flank. Treatments of Compound 172 were started at the appropriate tumor volume. Mice were randomized into groups and treated with 6, 17, or 50 mg/kg PO QD of Compound 172 and tumor volumes (x-axis) were measured twice a week using a caliper. The x-axis is time after start of treatment measured in days and the y-axis is tumor volume measured in mm^3.
Yamato-SS cells were maintained in vitro until exponential growth phase and inoculated subcutaneously into BALB/c nude mice at the right flank for tumor development. Treatments of Compound 176 were started at the appropriate tumor volume. Mice were treated as indicated with Compound 176 and tumor volumes (x-axis) were measured twice a week using a caliper. The x-axis is time after start of treatment measured in days and the y-axis is tumor volume measured in mm^3.

Data set [5] concerns Yamato (SS18-SSX fusion; BAF perturbed) cells. Briefly: Confluence perturbation (IncuCyte S3) in Yamato cells. In kind it is cell-based. As to conditions: 10 nM to 10^4 nM, single dose, 20-day period; FIG. 4, 16, 17; SW982 cells also tested. On the procedure:
FIG. 4, FIG. 16, and FIG. 17 are line graphs illustrating the confluence caused by Compound 172 and Compound 176 at various concentrations. The x-axis is time measured in days and the y axis is confluence measured as a percentage of control. The compounds were incubated at 10 nM, 32 nM, 100 nM, 316 nM, 1000 nM, and 10^4 nM concentrations at a single dose. The compounds were tested in a Yamato (SS18-SSX fusion; BAF perturbed) cells and SW982 (BAF wildtype) cells.
Compound 172 was serially diluted in DMSO and 200 nL were dispensed into 96 well tissue-culture treated plates by the Echo acoustic liquid handler. Yamato cells were counted and adjusted to 11,000 cells/mL with DMEM media supplemented with 10% heat-inactivated FBS. 200 ul of the cell suspension was dispensed into each well. The plate was sealed with a gas-permeable membrane and confluence was measured in a temperature- and humidity-controlled incubator (37° C., 5% CO2) over a 20-day period at 6-hour intervals by the IncuCyte S3. […]
Compound 176 and a comparator BRD9 inhibitor were serially diluted in DMSO and 200 nL were dispensed into 96 well tissue-culture treated plates by the Echo acoustic liquid handler. Yamato cells were counted and adjusted to 11,000 cells/mL with DMEM media supplemented with 10% heat-inactivated FBS. […]

In data set [6] the test system is Synovial Sarcoma PDX model (SA13412). Briefly: Tumor volume in the Synovial Sarcoma PDX model (SA13412). In kind it is in vivo. As to conditions: various concentrations, FIG. 23.

Sequence of hERG (Q12809 whole entry): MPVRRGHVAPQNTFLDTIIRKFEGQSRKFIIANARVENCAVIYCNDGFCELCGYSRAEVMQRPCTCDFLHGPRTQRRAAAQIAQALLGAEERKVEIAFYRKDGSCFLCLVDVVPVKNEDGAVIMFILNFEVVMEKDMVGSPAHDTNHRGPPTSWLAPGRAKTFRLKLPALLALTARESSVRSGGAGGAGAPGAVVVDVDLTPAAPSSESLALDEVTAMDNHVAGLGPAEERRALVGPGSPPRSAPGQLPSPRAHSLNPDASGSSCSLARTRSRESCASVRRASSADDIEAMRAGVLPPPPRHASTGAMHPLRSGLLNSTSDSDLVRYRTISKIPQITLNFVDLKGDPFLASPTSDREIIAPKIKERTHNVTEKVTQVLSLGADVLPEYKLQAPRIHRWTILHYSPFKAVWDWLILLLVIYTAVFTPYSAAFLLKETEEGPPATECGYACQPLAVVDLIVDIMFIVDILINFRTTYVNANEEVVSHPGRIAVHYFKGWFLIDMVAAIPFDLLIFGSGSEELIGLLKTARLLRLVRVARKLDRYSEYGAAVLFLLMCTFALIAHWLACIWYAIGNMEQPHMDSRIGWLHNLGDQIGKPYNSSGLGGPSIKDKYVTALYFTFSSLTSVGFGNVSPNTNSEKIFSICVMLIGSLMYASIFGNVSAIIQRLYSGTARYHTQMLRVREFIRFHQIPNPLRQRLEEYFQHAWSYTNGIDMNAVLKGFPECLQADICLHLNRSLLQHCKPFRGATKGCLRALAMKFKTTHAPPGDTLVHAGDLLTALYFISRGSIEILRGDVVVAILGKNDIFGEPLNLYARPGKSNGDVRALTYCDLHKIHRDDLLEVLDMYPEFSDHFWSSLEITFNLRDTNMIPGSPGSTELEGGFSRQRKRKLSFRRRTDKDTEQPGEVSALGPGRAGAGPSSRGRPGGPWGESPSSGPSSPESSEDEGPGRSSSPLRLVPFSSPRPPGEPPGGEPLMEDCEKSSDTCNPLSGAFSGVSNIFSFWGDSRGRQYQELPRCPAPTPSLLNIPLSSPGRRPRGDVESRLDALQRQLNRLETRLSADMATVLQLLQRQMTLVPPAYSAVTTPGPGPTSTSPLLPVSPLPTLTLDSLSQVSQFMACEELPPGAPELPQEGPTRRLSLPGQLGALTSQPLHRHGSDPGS

Consider `COc1cc(-c2cn(C)c(=O)c(C)c2C)cc(OC)c1CN1CCC(N2CCN(c3ccc(NC4CCC(=O)NC4=O)cc3F)CC2)C(F)(F)C1` (stereo not shown) [Compound 172, 3-[4-[4-[1-[[2,6-dimethoxy-4-(1,4,5-trimethyl-6-oxo-3-pyridyl)phenyl]methyl]-3,3-difluoro-4-piperidyl]piperazin-1-yl]-3-fluoro-anilino]piperidine-2,6-dione], for which the “response of tumor volume to various concentrations” value in [1] (Yamato-SS xenograft model, FIG. 7) is “dose dependent efficacy”. Moreover, in the data set on SW982, the GI50 is > 10 µM. In addition, the “Stability (plasma) % remaining @3 hrs” value in the data set “Plasma stability, rat” is 97.0%. Moreover, the “Stability (plasma) % remaining @3 hrs” value in the data set “Plasma stability, human” is given as 83.4%. This compound also showed a fraction unbound in the data set “PPB, dog” of 0.039. This compound showed a fraction unbound in “PPB, human” of 0.088. In addition, the CLint scaled in data set [2] is 38 mL/min/kg. Also, the CLint scaled in data set [3] stood at 15 mL/min/kg. Besides, the CLint scaled in [4] was found to be 9.4 mL/min/kg. Also, on hERG, the IC50 is > 30 µM. Further, in the data set “IV PK, mouse”, the “IV PK AUC(0-last)” value is 4942 (h*ng/mL)/(mg/kg), the “IV PK Cmax” value was 1228 [ng/mL]/(mg/kg), the clearance was found to be 3.4 mL/min/kg and the Vd came to 1.1 L/kg. Besides, in the data set “IV PK, mouse”, the half-life was 3.6 h. In addition, in the data set “PO PK, rat”, the “PO PK AUC(0-last)” value is 520 (h*ng/mL)/(mg/kg), the “PO PK Cmax” value is listed as 92 (ng/mL)/(mg/kg), the bioavailability came out at 49% and the half-life is 4.3 h. For the same compound, the “tumor volume after treatment, Yamato-SS xenograft” value in the data set on Yamato-SS (40 mg/kg PO QD, FIG. 1) is “strong effect”. Further, the “tumor volume after treatment, Yamato-SS xenograft, dose response” value in the data set on Yamato-SS (6, 17, or 50 mg/kg PO QD, FIG. 7) is “dose dependent efficacy”. For the same compound, in [5], the “confluence as a percentage of control” value is recorded as “A dose response is clearly visible”.
With `COc1cc(-c2cn(C)c(=O)c(C)c2C)cc(OC)c1CN1CCC(N2CCN(c3ccc(NC4CCC(=O)NC4=O)cc3F)CC2)C(F)(F)C1` (single isomer, unassigned) [Compound 176, 3-[4-[4-[1-[[2,6-dimethoxy-4-(1,4,5-trimethyl-6-oxo-3-pyridyl)phenyl]methyl]-3,3-difluoro-4-piperidyl]piperazin-1-yl]-3-fluoro-anilino]piperidine-2,6-dione], in [1] (synovial sarcoma CDX model (Yamato SS), various concentrations, FIG. 21), the “mean tumor volume+SEM” value was “efficacy”. In addition, in [6], the “mean tumor volume+SEM” value is on record as “efficacy”. For the same compound, in “Plasma stability, rat”, the “Stability (plasma) % remaining @3 hrs” value is on record as 88%. Further, the “Stability (plasma) % remaining @3 hrs” value in the data set “Plasma stability, human” was found to be 67%. Moreover, the free fraction (fraction unbound) in “PPB, dog” is 0.065. Besides, the free fraction (fraction unbound) in the data set “PPB, human” is 0.067. In addition, the CLint scaled in data set [2] was determined as 30 mL/min/kg. Moreover, the CLint scaled in data set [3] worked out at 14.2 mL/min/kg. The CLint scaled in data set [4] stood at 9.4 mL/min/kg. For the same compound, the 50% inhibitory concentration (IC50) on hERG is > 30 µM. For the same compound, in the data set “IV PK, mouse”, the “IV PK AUC(0-last)” value was 2724 (h*ng/mL)/(mg/kg), the “IV PK Cmax” value is 720 [ng/mL]/(mg/kg), the clearance stood at 6.2 mL/min/kg and the Vd turned out to be 2 L/kg. Besides, the half-life in the data set “IV PK, mouse” was 3.7 h. Also, in the data set “PO PK, rat”, the “PO PK AUC(0-last)” value is 656 (h*ng/mL)/(mg/kg), the “PO PK Cmax” value was 75 (ng/mL)/(mg/kg), the bioavailability came out at 83% and the half-life is 5.1 h. The “tumor volume after treatment, Yamato-SS xenograft” value in the data set with Yamato-SS (treated as indicated, FIG. 21) was “strong effect”. Also, the “confluence as a percentage of control” value in [5] is reported as “A dose response is clearly visible”.
